Values quoted from earlier work in patent US20170216273A1, “Nicotine Derivatives and Methods of Use” (priority 2014, published 2017).

Conditions: approximately; no test described

SMILES	potency relative to the L isomer
CN1CCC[C@@H]1c1cccnc1 (single isomer, unassigned) [D isomer of nicotine, D-nicotine]	25-30 % of the L isomer's potency
CN1CCC[C@H]1c1cccnc1 (racemic) [Racemic nicotine]	70-80 % of the L isomer's potency
